Source: patent publication US6130228A, “Polycyclic compounds” (priority 1995, dated 2000)
Where two headings read alike, the source gives them in different places.

What was measured:
5-HT (serotonin) uptake = assay type: biochemical, rat (Sprague Dawley)
Method: (§1) One male rat (Sprague Dawley) weighing approx. 200-250 g was sacrificed by cervical dislocation. The brain was dissected out and the cerebellum discarded. The brain was then weighed and 10 ml ice cold sucrose (0.32M) added per gram tissue. […] The pellet was discarded and the supernatant retained (crude synaptosomal preparation).
(§2) All tubes were set up in triplicate. […] 100 μl of the prepared synaptosomal preparation was added to each tube and incubated for 5 minutes in a shaking water bath at 37° C. Any reaction was stopped by plunging the tubes into an ice water bath. ^3 H NA (10^-7 M) or ^3 H 5-HT ([…]) was added to each tube and incubated for 5 minutes in a shaking water bath at 37° C. Any reaction was stopped by plunging the tubes into an ice-water bath. Accumulated monoamines were collected using a Brandell Cell Harvester under mild vacuum. Filters were rinsed (2×) using 4 ml of ice-cold 0.9% saline. Scintillation fluid was added (4 ml/tube). Radioactivity was measured on a scintillation counter.
(§3) Non-specific values were subtracted from total values. The control was taken as 100%. Drug effects were calculated as a percentage of control inhibitor value. A graph of log of drug concentration versus % control was plotted and IC50 values were calculated by interpolation.

[1] = target: T1, Acetylcholinesterase (AChE) (Rattus norvegicus, UniProt P37136); assay: biochemical; assay type: biochemical, Male Rats (Sprague Dawley), brain
T1 construct: The brain was removed and homogenised; from tissue; host or cells: rat brain (male Sprague Dawley), Triton X100 detergent supernatant of the EDTA-buffer pellet
T1 sequence (P37136 32-614): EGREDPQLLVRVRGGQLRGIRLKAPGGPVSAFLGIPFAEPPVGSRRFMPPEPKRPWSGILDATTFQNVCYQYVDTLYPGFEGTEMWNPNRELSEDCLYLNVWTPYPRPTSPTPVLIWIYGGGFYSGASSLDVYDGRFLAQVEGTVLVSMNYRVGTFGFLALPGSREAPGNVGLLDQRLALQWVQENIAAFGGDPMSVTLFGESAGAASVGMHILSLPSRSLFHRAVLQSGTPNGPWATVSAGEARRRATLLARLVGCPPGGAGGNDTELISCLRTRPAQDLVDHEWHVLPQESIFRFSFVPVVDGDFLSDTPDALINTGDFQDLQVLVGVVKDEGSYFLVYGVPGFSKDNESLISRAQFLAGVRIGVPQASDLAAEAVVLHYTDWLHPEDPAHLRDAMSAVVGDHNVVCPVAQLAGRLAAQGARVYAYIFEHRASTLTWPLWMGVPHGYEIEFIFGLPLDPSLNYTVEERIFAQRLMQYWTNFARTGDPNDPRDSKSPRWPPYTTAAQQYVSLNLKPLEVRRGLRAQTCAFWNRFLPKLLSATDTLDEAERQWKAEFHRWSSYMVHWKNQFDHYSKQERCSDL
Method: (i) Enzyme Source for AChE
5 Male Rats (Sprague Dawley) weighing approx 250 g were killed by CO2 overdose and cervical dislocation.
The brain was removed and homogenised (9 strokes at 840 rpm with 4 volumes of phosphate buffer pH 7.4+10 mM (EDTA) and centrifuged at 27,000 g for 30 minutes.
The supernatant was discarded and the pellet resuspended in phosphate buffer with 10 mM EDTA+1- Triton X100 (2 ml/g wet weight). The crude homogenate was centrifuged at 27,000 g for 30-40 minutes.
The pellet was discarded and the supernatant was dispensed into 0.5 ml aliquots and stored at -20° C. until required.
Phosphate Buffer (0.1M. pH 7.4)
Made up to 500 ml with distilled H2 O, pH 7.4.
0.5 ml aliquots of brain (enzyme solution) as prepared above were thawed out. 2 ml of phosphate buffer was added to each aliquot. 2 ml of the enzyme solution was incubated with 2 ml PDS for 60 minutes at 0° C. The composition of blank, control and test solutions are given below:
0.9 ml phosphate buffer (0.1 M, pH 7.4)
0.85 ml phosphate buffer (0.1M, pH 7.4)
0.05 ml acetylthiocholine (5.2 mM)
(§4) 0.8 ml phosphate buffer (0.1M, pH 7.4)
0.05 ml Acetylthiocholine 5.2 mM
Change in absorbance was measured at 30 second intervals for 3 minutes at […]. The control was taken as 100%. Inhibitor was calculated as a percentage of the control. A graph of Log of inhibitor conc. versus % control was plotted and IC5. values calculated by interpolation.

[2] = target: T2, Butyrylcholinesterase (BChE) (Equus caballus, UniProt P81908); assay: biochemical
T2 construct: purchased Sigma c-7512
T2 sequence (P81908 whole entry): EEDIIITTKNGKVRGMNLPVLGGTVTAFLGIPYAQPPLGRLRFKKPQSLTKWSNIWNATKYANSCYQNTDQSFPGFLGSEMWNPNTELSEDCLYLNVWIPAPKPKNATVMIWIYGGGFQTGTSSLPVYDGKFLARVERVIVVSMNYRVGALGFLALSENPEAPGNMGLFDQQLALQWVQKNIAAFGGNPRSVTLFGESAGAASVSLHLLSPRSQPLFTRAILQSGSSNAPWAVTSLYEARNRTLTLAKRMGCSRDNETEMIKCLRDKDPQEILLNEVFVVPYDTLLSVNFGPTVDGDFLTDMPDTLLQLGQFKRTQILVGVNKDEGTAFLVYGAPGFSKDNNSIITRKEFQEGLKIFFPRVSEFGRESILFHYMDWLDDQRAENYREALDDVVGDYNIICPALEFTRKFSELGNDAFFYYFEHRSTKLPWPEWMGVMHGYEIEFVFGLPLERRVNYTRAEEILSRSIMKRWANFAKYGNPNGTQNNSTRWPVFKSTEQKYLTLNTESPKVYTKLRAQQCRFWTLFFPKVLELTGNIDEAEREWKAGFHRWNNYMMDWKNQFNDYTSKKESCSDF
Method: The following components were utilised:
Phosphate Buffer (0.1M, pH 7.4)
Made up to 500 ml with distilled H2 O, pH 7.4
1 ml of enzyme solution (i), was incubated with 2 ml PDS for 60 minutes at 0° C.
Components of the assay blank, controls and test solutions are provided below:
0.9 ml phosphate buffer (0.1M, pH 7.4)
0.85 ml phosphate buffer (0.1 M, pH 7.4)
0.05 ml Acetylthiocholine (5.2 mM)
as §4
Control was taken as 100%. Inhibitor was calculated as a percentage of control. A graph of Log of inhibitor conc. versus % control was plotted and IC50 values calculated by interpolation.

[3] = tested on: noradrenaline (NA) uptake; assay: Monoamine Uptake Inhibition Assay, noradrenaline (synaptosomal preparation); assay type: biochemical, rat (Sprague Dawley)
Method: as §1, §2, §3

[4] = Table 3, read-out: 5-HT UPTAKE INHIBITION
[5] = Table 3, read-out: NA UPTAKE INHIBITION
[6] = Table 1, form BASE, n = 5, read-out: IC50 5HT UPTAKE
[7] = Table 1, form SALT, n = 5, read-out: IC50 5HT UPTAKE
[8] = Table 1, form BASE, ±SEM, n = 5, read-out: IC50 AChE
[9] = Table 1, form SALT, ±SEM, n = 5, read-out: IC50 AChE
[10] = Table 1, form SALT, ±SEM, n = 5, read-out: IC50 BChE
[11] = Table 1, form BASE, n = 5, read-out: IC50 NA UPTAKE
[12] = Table 1, form SALT, n = 5, read-out: IC50 NA UPTAKE

SMILES | 5-HT UPTAKE INHIBITION TACRINE RATIO (5-HT (serotonin) uptake) | IC50 (5-HT (serotonin) uptake; [4]) | AChE TACRINE RATIO [1] | IC50 ([1]; Table 2, read-out: AChE IC50) | BChE TACRINE RATIO [2] | IC50 ([2]; Table 2, read-out: BChE IC50) | NA UPTAKE INHIBITION TACRINE RATIO [3] | IC50 [3, 5] | IC50 (5-HT (serotonin) uptake; [6]) | IC50 (5-HT (serotonin) uptake; [7]) | IC50 [1, 8] | IC50 [1, 9] | IC50 [2, 10] | IC50 [3, 11] | IC50 [3, 12] | IC50 [1] | AChE TACRINE RATIO ([1]; Table 2, relative to tacrine = 1.000)
Nc1c2c(nc3cccc(Cl)c13)CCC2 [Compound 16, 9-Amino-8-chloro-2,3-dihydro-1H-cyclopenta[b]quinoline] | 0.195 | 39 µM | 0.557 | 0.14 µM | 0.047 | 0.53 µM | 3350.000 | 0.002 µM |  |  |  |  |  |  |  |  | 
COc1ccc2c(c1)CCCc1c-2nc2ccccc2c1N [Compound 1, 13-Amino-1,2 dihydro-5-methoxy[1H] benz [7] annuleno [5,4-b] quinoline] |  |  |  |  |  |  |  |  | 0.7 µM | 0.02 µM | 68.8 µM | 17.4 µM | 34.4 µM | 3.6 µM | 1.8 µM |  | 
Nc1c2c(nc3c(O)cccc13)CCC2 [Compound 12, 9-Amino-5-hydroxy-2,3-dihydro-1H-cyclopenta [b] quinoline] | 0.524 | 14.5 µM | 0.078 | 1 µM | 0.050 | 0.5 µM | 9.571 | 0.7 µM |  |  |  |  |  |  |  |  | 
Nc1c2c(nc3ccccc13)-c1ccc(Cl)cc1CC2 [Compound 5, 7-Amino-5,6-dihydro-3-chlorobenz-[c]-acridine] |  |  |  |  |  |  |  |  | 14.3 µM | 5.2 µM | 144 µM | 17.9 µM | 7.1 µM | 4.1 µM | 6.1 µM |  | 
Nc1c2c(nc3cc(F)ccc13)CCC2 [Compound 15, 9-amino-6-fluoro-2,3-dihydro-1H-cyclopenta [b] quinoline] | 0.345 | 22 µM | 1.219 | 0.064 µM | 0.610 | 0.041 µM | 9.571 | 0.7 µM |  |  |  |  |  |  |  |  | 
Nc1c2c(nc3c(F)cccc13)CCC2 [Compound 13, 9-Amino-5-fluoro-2,3-dihydro-1H-cyclopenta-[1,2-b] quinoline] | 0.181 | 42 µM | 0.269 | 0.29 µM | 0.093 | 0.27 µM | 9.571 | 0.7 µM |  |  |  |  |  |  |  |  | 
Nc1c2c(nc3ccccc13)-c1ccccc1CC2 [Compound 3, 7 Amino-5,6-dihydro-benz-[c]-acridine] |  |  |  |  |  |  |  |  | 4.6 µM | 2 µM | 37.4 µM | 7.8 µM | 3.8 µM | 12.1 µM | 13.2 µM |  | 
Nc1c2c(nc3ccccc13)CCC2 [Compound 29, 9-Amino-2,3-dihydro-[1H ]-cyclopenta-[b]-quinoline] | 0.362 | 21 µM | 1.393 | 0.056 µM | 0.481 |  | 11.167 | 0.6 µM |  |  |  |  |  |  |  |  | 
Nc1c2c(nc3ccc(Cl)cc13)CCC2 [Compound 19, 9-Amino-7-chloro-2,3-dihydro-1H-cyclopenta-[b] quinoline] | 1.086 | 7 µM | 0.060 | 1.3 µM | 0.019 | 1.32 µM | 2.481 | 2.7 µM |  |  |  |  |  |  |  |  | 
Nc1c2c(nc3ccccc13)-c1ccccc1CCC2 [Compound 6, 8-Amino-6,7-dihydro-5H-benzo-[6, 7] cyclohepta [1,2-b] quinoline] |  |  |  |  |  |  |  |  | 4.7 µM | 1 µM | 329 µM | 17.5 µM | 4 µM |  | 1.9 µM |  | 
Nc1c2c(nc3cccc(F)c13)CCC2 [Compound 14, 9-Amino-8-fluoro-2,3-dihydro-1H-cyclopenta-[b] quinoline] | 0.177 | 43 µM | 1.000 | 0.078 µM | 0.017 | 1.51 µM | 2.030 | 3.3 µM |  |  |  |  |  |  |  |  | 
Nc1c2c(nc3ccccc13)-c1ccccc1C2 [Compound 2, 6-Amino-4,5-benzo-[5H]-cyclopenta-[1,2-b]-quinoline] |  |  |  |  |  |  |  |  |  | 2.2 µM |  | 0.35 µM |  |  | 2.3 µM |  | 
Nc1c2c(nc3ccc(Br)cc13)CCC2 [Compound 25, 9-Amino-7-bromo-2,3-dihydro-1H-cyclopenta-[1,2-b] quinoline] | 1.434 | 5.3 µM | 0.008 | 10 µM | 0.013 | 1.9 µM |  |  |  |  |  |  |  |  |  |  | 
c1ccc(CNc2c3c(nc4ccccc24)CCC3)cc1 [Compound 28, N-(Phenylmethyl)-9-amino-2,3-dihydro-1H-cyclopenta[1,2-b] quinoline] | 1.310 | 5.8 µM |  |  | 0.002 | 13.8 µM |  |  |  |  |  |  |  |  |  | 39.6 µM | 0.002
Nc1c2c(nc3ccc(F)cc13)CCC2 [Compound 11, 9-Amino-7-fluoro-2,3-dihydro-1H-cyclopenta-[b] quinoline] | 2.054 | 3.7 µM | 0.650 | 0.12 µM | 0.033 | 0.75 µM | 0.558 | 12 µM |  |  |  |  |  |  |  |  | 
